Measurements published in ChEMBL document CHEMBL5137047, “Design, synthesis and anti-inflammatory evaluation of aloe-emodin derivatives as potential modulators of Akt, NF-κB and JNK signaling pathways” (Eur J Med Chem, 2022).
Activity calls are given as the source filed them. The calls are words filed in the database; no cut-off is given here.

Assays:
RAW264.7 [1] = test: Antiinflammatory activity against mouse RAW264.7 cells assessed as inhibition of LPS-induced nitric oxide production at 5 uM measured after 24 hrs; type: functional, cell-based
RAW264.7 [2] = test: Downregulation of iNOS protein expression in LPS-stimulated mouse RAW264.7 cells measured after 24 hrs by Western blot analysis; type: functional, cell-based; conditions: dose 3.125-12.5 µM
RAW264.7 [3] = test: Inhibition of Akt phosphorylation in LPS-stimulated mouse RAW264.7 cells at 3.125 to 12.5 uM measured after 24 hrs by Western blot analysis; type: cell-based; conditions: dose 3.125-12.5 µM
RAW264.7 [4] = test: Downregulation of COX-2 protein expression in LPS-stimulated mouse RAW264.7 cells measured after 24 hrs by Western blot analysis; type: functional, cell-based; conditions: dose 3.125-12.5 µM
RAW264.7 [5] = test: Cytotoxicity against mouse RAW264.7 cells assessed as reduction in cell viability at upto 25 uM measured after 24 hrs by MTT assay; type: toxicity, cell-based; conditions: raw264.7, 24 h
RAW264.7 [6] = test: Inhibition of IL-6 mRNA expression in LPS-stimulated mouse RAW264.7 cells measured after 24 hrs by qRT-PCR analysis; type: functional, cell-based; conditions: dose 3.125-12.5 µM, DDE = dose-dependent effect
RAW264.7 [7] = test: Inhibition of LPS-induced NF-kappaB activation in mouse RAW264.7 cells assessed as upregulation of IkappaBalpha protein expression at 3.125 to 12.5 uM preincubated for 24 hrs followed by LPS addition and measured after 30 mins by Western blot analysis; type: cell-based; conditions: dose 3.125-12.5 µM, time 24.5 hrs
RAW264.7 [8] = test: Inhibition of PGE2 production in LPS-stimulated mouse RAW264.7 cells measured after 24 hrs by ELISA; type: functional, cell-based; conditions: dose 3.125-12.5 µM, DDE = dose-dependent effect
RAW264.7 [9] = test: Inhibition of TNF-alpha production in LPS-stimulated mouse RAW264.7 cells measured after 24 hrs by ELISA; type: functional, cell-based; conditions: dose 3.125-12.5 µM, DDE = dose-dependent effect
RAW264.7 [10] = test: Inhibition of COX-2 mRNA expression in LPS-stimulated mouse RAW264.7 cells measured after 24 hrs by qRT-PCR analysis; type: functional, cell-based; conditions: dose 3.125-12.5 µM, DDE = dose-dependent effect
RAW264.7 [11] = test: Inhibition of LPS-induced NF-kappaB activation in mouse RAW264.7 cells assessed as reduction in p65 expression in nucleus at 3.125 to 12.5 uM preincubated for 24 hrs followed by LPS addition and measured after 30 mins by Western blot analysis; type: cell-based; conditions: dose 3.125-12.5 µM
RAW264.7 [12] = test: Inhibition of IL-6 production in LPS-stimulated mouse RAW264.7 cells measured after 24 hrs by ELISA; type: functional, cell-based; conditions: dose 3.125-12.5 µM, DDE = dose-dependent effect
RAW264.7 [13] = test: Inhibition of IL-1beta production in LPS-stimulated mouse RAW264.7 cells measured after 24 hrs by ELISA; type: functional, cell-based; conditions: dose 3.125-12.5 µM, DDE = dose-dependent effect
RAW264.7 [14] = test: Inhibition of IL-1beta mRNA expression in LPS-stimulated mouse RAW264.7 cells measured after 24 hrs by qRT-PCR analysis; type: functional, cell-based; conditions: dose 3.125-12.5 µM, DDE = dose-dependent effect
[15] = molecular target: c-Jun N-terminal kinase (Mus musculus) (UniProt Q91Y86+Q9WTU6+Q61831); test: Inhibition of JNK phosphorylation in LPS-induced mouse RAW264.7 cells measured after 24 hrs by Western blot analysis; type: cell-based; conditions: dose 3.125-12.5 µM, DDE = dose-dependent effect
c-Jun N-terminal kinase (Mus musculus), sequence (Q61831 whole entry, looked up): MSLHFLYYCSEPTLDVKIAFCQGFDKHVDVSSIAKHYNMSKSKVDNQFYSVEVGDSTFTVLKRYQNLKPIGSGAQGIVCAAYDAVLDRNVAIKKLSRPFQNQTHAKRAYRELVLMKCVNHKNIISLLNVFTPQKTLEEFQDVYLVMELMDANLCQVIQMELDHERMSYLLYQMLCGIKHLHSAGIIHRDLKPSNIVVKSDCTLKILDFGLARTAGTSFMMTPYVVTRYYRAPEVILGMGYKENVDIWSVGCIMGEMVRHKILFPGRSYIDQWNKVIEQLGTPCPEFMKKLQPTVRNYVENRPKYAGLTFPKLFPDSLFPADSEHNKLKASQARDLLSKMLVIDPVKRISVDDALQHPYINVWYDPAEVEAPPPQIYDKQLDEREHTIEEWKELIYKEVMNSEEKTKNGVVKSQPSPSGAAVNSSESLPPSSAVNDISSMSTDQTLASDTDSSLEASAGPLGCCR
c-Jun N-terminal kinase (Mus musculus), sequence (Q91Y86 whole entry, looked up): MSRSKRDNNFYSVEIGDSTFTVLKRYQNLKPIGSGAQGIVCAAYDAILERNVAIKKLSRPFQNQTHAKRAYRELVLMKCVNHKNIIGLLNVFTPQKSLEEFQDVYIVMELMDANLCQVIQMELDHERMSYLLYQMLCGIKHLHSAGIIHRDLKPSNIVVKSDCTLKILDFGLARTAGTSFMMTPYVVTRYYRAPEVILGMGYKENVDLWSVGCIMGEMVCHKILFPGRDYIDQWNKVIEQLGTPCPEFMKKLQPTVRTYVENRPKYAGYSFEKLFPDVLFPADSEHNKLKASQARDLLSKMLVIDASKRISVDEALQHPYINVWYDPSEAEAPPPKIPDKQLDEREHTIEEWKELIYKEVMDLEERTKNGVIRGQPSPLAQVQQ
c-Jun N-terminal kinase (Mus musculus), sequence (Q9WTU6 whole entry, looked up): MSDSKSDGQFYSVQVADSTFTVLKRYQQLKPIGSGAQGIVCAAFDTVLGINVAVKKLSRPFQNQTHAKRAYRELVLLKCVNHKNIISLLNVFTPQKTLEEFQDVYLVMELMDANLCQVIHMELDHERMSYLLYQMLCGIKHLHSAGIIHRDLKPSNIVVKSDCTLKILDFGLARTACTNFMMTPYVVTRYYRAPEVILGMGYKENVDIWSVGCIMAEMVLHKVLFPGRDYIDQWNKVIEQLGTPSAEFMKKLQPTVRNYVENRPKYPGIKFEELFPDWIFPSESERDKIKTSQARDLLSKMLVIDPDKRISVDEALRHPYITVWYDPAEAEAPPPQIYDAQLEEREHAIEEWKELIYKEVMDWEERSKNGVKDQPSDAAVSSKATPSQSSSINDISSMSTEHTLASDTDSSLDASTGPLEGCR

RAW264.7 [16] = test: Antiinflammatory activity against mouse RAW264.7 cells assessed as inhibition of LPS-induced nitric oxide production measured after 24 hrs; type: functional, cell-based; conditions: RAW264.7, 24 h
RAW264.7 [17] = test: Inhibition of LPS-induced NF-kappaB activation in mouse RAW264.7 cells assessed as reduction in translocation of p65 from cytoplasm to nucleus at 3.125 to 12.5 uM preincubated for 24 hrs followed by LPS addition and measured after 30 mins by immunofluorescence analysis; type: cell-based; conditions: dose 3.125-12.5 µM

SMILES | NO production inhibition (active/inactive call) (RAW264.7 [1]) | also measured
O=C(CN1CCCC1)OCc1cc(O)c2c(c1)C(=O)c1cccc(O)c1C2=O | Active | 
CC(=O)Oc1cccc2c1C(=O)c1c(OC(C)=O)cc(COC(=O)CN3CCOCC3)cc1C2=O | Active | 
O=C(CN1CCSCC1)OCc1cc(O)c2c(c1)C(=O)c1cccc(O)c1C2=O | Active | 
CC(=O)Oc1cccc2c1C(=O)c1c(OC(C)=O)cc(COC(=O)CN3CCCCC3)cc1C2=O | Active | 
O=C(CN1CCOCC1)OCc1cc(O)c2c(c1)C(=O)c1cccc(O)c1C2=O | Active | 
CC(=O)Oc1cccc2c1C(=O)c1c(OC(C)=O)cc(COC(=O)CN3CCC(OC(C)=O)CC3)cc1C2=O | Active | 
CN1CCN(CC(=O)OCc2cc(O)c3c(c2)C(=O)c2cccc(O)c2C3=O)CC1 |  | Activity (RAW264.7 [2]): Active; inhibition (RAW264.7 [3]): Active; Activity (RAW264.7 [4]): Active; Activity (RAW264.7 [5]): Non-Toxic; inhibition (RAW264.7 [6]): Dde; inhibition (RAW264.7 [7]): Active; inhibition (RAW264.7 [8]): Dde; inhibition (RAW264.7 [9]): Dde; inhibition (RAW264.7 [10]): Dde; inhibition (RAW264.7 [11]): Active; inhibition (RAW264.7 [12]): Dde; inhibition (RAW264.7 [13]): Dde; inhibition (RAW264.7 [14]): Dde; inhibition [15]: Dde; IC50 (RAW264.7 [16]): 3.15 µM; inhibition (RAW264.7 [17]): Active
CC(=O)Oc1cccc2c1C(=O)c1c(OC(C)=O)cc(COC(=O)CN3CCN(c4ccccc4)CC3)cc1C2=O | Active | 
O=C(CN1CCN(c2ccc(F)cc2)CC1)OCc1cc(O)c2c(c1)C(=O)c1cccc(O)c1C2=O | Active | 
O=C(CN1CCC(O)CC1)OCc1cc(O)c2c(c1)C(=O)c1cccc(O)c1C2=O | Active | 
O=C(CN1CCCCC1)OCc1cc(O)c2c(c1)C(=O)c1cccc(O)c1C2=O | Active | 
O=C(CN1CCN(c2ccccc2)CC1)OCc1cc(O)c2c(c1)C(=O)c1cccc(O)c1C2=O | Active | 
CC(=O)Oc1cccc2c1C(=O)c1c(OC(C)=O)cc(COC(=O)CN3CCSCC3)cc1C2=O | Active | 
CC(C)C(=O)Oc1cccc2c1C(=O)c1c(OC(=O)C(C)C)cc(COC(=O)CN3CCOCC3)cc1C2=O | Active | 
CCN(CC)CC(=O)OCc1cc(O)c2c(c1)C(=O)c1cccc(O)c1C2=O | Active | 
O=C(CN1CCOCC1)OCc1cc(OC(=O)c2ccccc2)c2c(c1)C(=O)c1cccc(OC(=O)c3ccccc3)c1C2=O | Active | 
CC(=O)Oc1cccc2c1C(=O)c1c(OC(C)=O)cc(COC(=O)CN3CCN(c4ccc(F)cc4)CC3)cc1C2=O | Active | 
CCCN(C)CC(=O)OCc1cc(O)c2c(c1)C(=O)c1cccc(O)c1C2=O | Active | 
CC(C)N(C)CC(=O)OCc1cc(O)c2c(c1)C(=O)c1cccc(O)c1C2=O | Active | 
